Consider 2 compounds from ChEMBL document CHEMBL3886310, “Pyrrolidine derivatives, pharmaceutical compositions and uses thereof” (2015).

The target in the experiment is Acetyl-CoA carboxylase 2 (Homo sapiens, UniProt O00763). Briefly: Spectrophotometric 384 Well Assay: Assay reactions are then carried out in 384-well plates, with hACC2 in an appropriate dilution and at final assay concentrations (f.c.) of 100 mM Tris (pH 7.5), 10 mM trisodium citrate, 25 mM KHCO3, 10 mM MgCl2, 0.5 mg/ml BSA, 3.75 mM reduced L-glutathione, 15 U/ml lactate dehydrogenase, 0.5 mM phosphoenolpyruvate, 15 U/ml pyruvate kinase, compounds at different concentrations at final DMSO concentrations of 1%.The enzymatic reaction is then started by addition of a mixture of NADH, acetyl Coenzyme A (both 200 μM f.c.) and ATP (500 uM f.c.). The decrease of the optical density (slope S) is then determined at 25° C. at a wavelength of 340 nm over 15 minutes in a spectrophotometric reader.
Acetyl-CoA carboxylase 2, sequence (O00763 whole entry): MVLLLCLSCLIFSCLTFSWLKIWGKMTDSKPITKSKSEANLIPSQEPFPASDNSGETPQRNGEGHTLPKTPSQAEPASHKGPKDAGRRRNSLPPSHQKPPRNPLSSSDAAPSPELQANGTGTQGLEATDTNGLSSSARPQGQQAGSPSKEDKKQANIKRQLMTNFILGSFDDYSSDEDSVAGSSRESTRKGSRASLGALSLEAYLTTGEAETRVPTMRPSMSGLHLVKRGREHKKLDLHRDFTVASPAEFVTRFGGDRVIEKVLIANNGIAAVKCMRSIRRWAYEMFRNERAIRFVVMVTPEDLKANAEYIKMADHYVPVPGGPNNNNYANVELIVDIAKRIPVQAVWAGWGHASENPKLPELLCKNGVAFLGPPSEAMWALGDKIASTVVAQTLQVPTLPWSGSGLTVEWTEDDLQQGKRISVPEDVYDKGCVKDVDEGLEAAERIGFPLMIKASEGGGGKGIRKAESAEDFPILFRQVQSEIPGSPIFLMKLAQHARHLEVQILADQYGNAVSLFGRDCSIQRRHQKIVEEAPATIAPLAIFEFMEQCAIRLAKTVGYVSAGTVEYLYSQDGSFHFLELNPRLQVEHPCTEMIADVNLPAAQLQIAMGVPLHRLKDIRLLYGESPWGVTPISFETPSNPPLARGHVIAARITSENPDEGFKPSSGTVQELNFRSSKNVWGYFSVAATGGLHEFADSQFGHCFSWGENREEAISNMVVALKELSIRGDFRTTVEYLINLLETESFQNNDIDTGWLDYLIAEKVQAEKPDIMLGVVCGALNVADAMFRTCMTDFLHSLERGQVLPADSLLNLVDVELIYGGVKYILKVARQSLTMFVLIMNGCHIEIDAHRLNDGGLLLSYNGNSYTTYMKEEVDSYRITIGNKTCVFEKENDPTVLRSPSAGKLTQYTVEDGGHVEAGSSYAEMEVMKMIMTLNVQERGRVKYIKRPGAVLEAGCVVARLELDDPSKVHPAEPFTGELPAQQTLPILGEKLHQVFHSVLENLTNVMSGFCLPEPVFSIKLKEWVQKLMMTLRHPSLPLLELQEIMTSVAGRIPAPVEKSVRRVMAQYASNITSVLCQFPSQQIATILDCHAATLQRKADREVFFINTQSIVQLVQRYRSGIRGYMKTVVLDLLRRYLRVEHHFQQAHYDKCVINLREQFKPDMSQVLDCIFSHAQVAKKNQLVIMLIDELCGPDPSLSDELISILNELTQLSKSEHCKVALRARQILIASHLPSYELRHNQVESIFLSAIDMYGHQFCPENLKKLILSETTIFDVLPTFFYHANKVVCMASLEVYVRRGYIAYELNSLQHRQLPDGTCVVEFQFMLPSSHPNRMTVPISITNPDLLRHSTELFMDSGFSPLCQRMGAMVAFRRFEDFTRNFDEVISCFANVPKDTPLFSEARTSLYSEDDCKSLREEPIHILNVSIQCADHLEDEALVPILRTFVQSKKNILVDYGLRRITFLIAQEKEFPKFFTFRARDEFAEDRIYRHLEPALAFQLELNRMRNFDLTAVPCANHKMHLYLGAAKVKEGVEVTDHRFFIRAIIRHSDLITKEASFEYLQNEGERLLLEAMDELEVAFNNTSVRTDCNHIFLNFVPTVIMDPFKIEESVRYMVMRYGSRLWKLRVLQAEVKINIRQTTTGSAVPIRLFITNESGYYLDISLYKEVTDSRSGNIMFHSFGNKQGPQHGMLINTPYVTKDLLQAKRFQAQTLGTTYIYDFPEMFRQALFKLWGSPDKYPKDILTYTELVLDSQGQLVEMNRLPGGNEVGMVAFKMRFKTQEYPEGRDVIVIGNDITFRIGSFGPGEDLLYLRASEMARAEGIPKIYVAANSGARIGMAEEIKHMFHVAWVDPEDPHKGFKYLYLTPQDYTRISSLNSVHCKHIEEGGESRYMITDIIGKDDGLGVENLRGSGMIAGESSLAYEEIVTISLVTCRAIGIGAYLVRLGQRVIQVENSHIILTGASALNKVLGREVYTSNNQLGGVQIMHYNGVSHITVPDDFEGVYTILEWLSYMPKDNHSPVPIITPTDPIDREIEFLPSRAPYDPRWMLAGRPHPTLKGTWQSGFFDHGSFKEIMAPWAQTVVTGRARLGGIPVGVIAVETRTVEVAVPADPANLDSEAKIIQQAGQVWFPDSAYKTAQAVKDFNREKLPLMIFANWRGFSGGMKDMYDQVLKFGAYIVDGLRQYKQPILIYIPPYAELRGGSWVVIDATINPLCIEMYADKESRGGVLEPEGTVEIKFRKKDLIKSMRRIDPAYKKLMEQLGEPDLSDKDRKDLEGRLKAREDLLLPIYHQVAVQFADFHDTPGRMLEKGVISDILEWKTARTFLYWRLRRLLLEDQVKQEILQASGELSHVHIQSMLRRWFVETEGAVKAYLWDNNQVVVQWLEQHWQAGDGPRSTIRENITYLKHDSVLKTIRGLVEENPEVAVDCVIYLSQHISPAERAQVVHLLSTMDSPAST

By IC50 is commonly meant the midpoint of a concentration-inhibition curve.

With `C[C@H](NC(=O)c1cn[nH]c1)c1ccc(O[C@@H]2CCN(c3ccc(OCC4CC4)cc3)C2)cc1`, the IC50 came out at 16 nM.
In the case of `COC(=O)N[C@@H](C)c1ccc(OC2CCN(c3ccc(OC(C)C)cc3)C2)cc1` (some centres not stated), the concentration for half-maximal inhibition (IC50) was determined as 1360 nM.
